Test results: patent US11230527B2, “Solid forms of 2-(5-(4-(2-morpholinoethoxy)phenyl)pyridin-2-yl)-n- benzylacetamide” (Athenex HK Innovative Limited, priority 2017, dated 2022)

Columns and labels:
Format in all cases: physicochemical
[1] = XRPD physical form stability under storage conditions; details: up to eight weeks
Method: XRPD analysis is carried out using a diffractometer running in reflection mode. The 2-theta position is calibrated against a standard before running the experiment. XRPD analysis was carried out on a Panalytical X'Pert^3 Powder XRPD on a Si zero-background holder, scanning the samples between 3 and 40° 2-theta. The 2-theta position was calibrated against Panalytical 640 Si powder standard. The test material was gently compressed on a glass disc inserted into a sample holder. The sample was then loaded into a Panalytical X'Pert^3 Powder XRPD diffractometer running in reflection mode and analyzed, using the following experimental conditions.

[2] = XRPD after air-drying or vacuum drying
Method: XRPD analysis was carried out on a Panalytical X'Pert^3 Powder XRPD on a Si zero-background holder, scanning the samples between 3 and 40° 2-theta. The 2-theta position was calibrated against Panalytical 640 Si powder standard. The test material was gently compressed on a glass disc inserted into a sample holder. The sample was then loaded into a Panalytical X'Pert^3 Powder XRPD diffractometer running in reflection mode and analyzed, using the following experimental conditions.

Solubility estimation = details: thermodynamic from solid
Method: Solubility of the solid forms of the present application in a variety of solvents is measured. Solvent is added to a sample until the total volume reaches 100 μL, followed by 100 μL per step until the sample is dissolved or the concentration is less than <1.0 mg/mL. The approximate solubility is then calculated.
Solubility of the solid forms of the present application in a variety of solvents was measured according to the following procedures. A sample (˜2 mg) was weighed into a 4-mL glass vial. Solvent was added into the vial stepwise at 50 μL per step until the total volume was 100 μL, followed by 100 μL per step until concentration was less than 1.0 mg/mL. The solutions were mixed thoroughly after each addition by sonication for 2 minutes and vortexing for 1 minute. The addition of solvent was complete if the sample was dissolved or the concentration was <1.0 mg/mL. The volumes of solvent (V1 and V2) were recorded, and approximate solubility was calculated.

[3] = Dynamic Vapor Sorption (DVS)
Method: Dynamic Vapor Sorption (DVS) was measured using a SMS (Surface Measurement Systems) DVS Intrinsic. The test was performed at 25° C. while the RH was varied from 0% to 95% at 10% increments in the range of 0% RH-90% RH and at 5% increment up to 95% RH. The change in mass after each increase or decrease in the RH was recorded as a percentage of the original mass of the starting material. Dynamic Vapor Sorption (DVS) was measured using a SMS (Surface Measurement Systems) DVS Intrinsic, using the following parameters: [table]

[4] = HPLC chemical stability after storage at various conditions; details: for Area Percent at 248 nm T1 week: 1 week; for Area Percent at 248 nm T2 week: 2 weeks; for Area Percent at 248 nm T4 week: 4 weeks; for Area Percent at 248 nm T8 week: 8 weeks
Method: High-performance Liquid Chromatography (HPLC) analysis was performed to determine the chemical stability of Forms A, B, and C of Compound A after storage at various conditions, using an Agilent 1100 system with DAD. Chemical stability was estimated by measuring and comparing the area percent of the material peak at various time points. For High-performance Liquid Chromatography (HPLC) analysis, an Agilent 1100 system with DAD was used.

In the case of `O=C(Cc1ccc(-c2ccc(OCCN3CCOCC3)cc2)cn1)NCc1ccccc1` [Form A, 2-(5-(4-(2-morpholinoethoxy)phenyl)pyridin-2-yl)-N-benzylacetamide], the “change in physical form (XRPD)” value ([1]; 25° C./60% RH) is reported as “no change in physical form”, the “change in physical form (XRPD)” value ([1]; 40° C./75% RH) is reported as “no change in physical form” and the “change in physical form (XRPD)” value ([1]; 55° C./75% RH) is reported as “no change in physical form”. For the same molecule, the “change in physical form (XRPD)” value ([1]; ambient conditions) was “no change in physical form”, the “crystallinity after drying (XRPD)” value [2] was “no loss of crystallinity” and the solubility thermodynamic (Solubility estimation; aqueous) was < 1.5 mg/mL. For the same molecule, the solubility (Solubility estimation; water, aqueous solution (e.g., water), room temperature, read-out: aqueous solubility (dissolved completely)) was > 20 mg/mL, the hygroscopicity [3] was “non-hygroscopic” and the “XRPD pattern after exposure to DVS experiment” value ([3]; 25° C. and RH up to 95%) was “does not change”. The water uptake ([3]; between 0 and 80% RH at between 25° C. and 45° C.) was “less than 0.2 % w/w”, the “Area Percent at 248 nm T1 week” value ([4]; 25° C./60% RH) was 99.8 Area Percent and the “Area Percent at 248 nm T2 week” value ([4]; 25° C./60% RH) was 99.8 Area Percent. The “Area Percent at 248 nm T4 week” value ([4]; 25° C./60% RH) was 99.8 Area Percent, the “Area Percent at 248 nm T8 week” value ([4]; 25° C./60% RH) was 99.8 Area Percent and the “Area Percent at 248 nm T0” value ([4]; 25° C./60% RH) was 99.8 Area Percent. For the same molecule, the “Area Percent at 248 nm T1 week” value ([4]; 40° C./75% RH) was 99.8 Area Percent, the “Area Percent at 248 nm T2 week” value ([4]; 40° C./75% RH) was 99.8 Area Percent and the “Area Percent at 248 nm T4 week” value ([4]; 40° C./75% RH) was 99.8 Area Percent. For the same molecule, the “Area Percent at 248 nm T8 week” value ([4]; 40° C./75% RH) was 99.8 Area Percent, the “Area Percent at 248 nm T0” value ([4]; 40° C./75% RH) was 99.8 Area Percent and the “Area Percent at 248 nm T1 week” value ([4]; 55° C./75% RH) was 99.8 Area Percent. For the same molecule, the “Area Percent at 248 nm T2 week” value ([4]; 55° C./75% RH) was 99.8 Area Percent, the “Area Percent at 248 nm T4 week” value ([4]; 55° C./75% RH) was 99.7 Area Percent and the “Area Percent at 248 nm T8 week” value ([4]; 55° C./75% RH) was 99.8 Area Percent. For the same molecule, the “Area Percent at 248 nm T0” value ([4]; 55° C./75% RH) was 99.8 Area Percent, the “Area Percent at 248 nm T1 week” value ([4]; Ambient) was 99.8 Area Percent and the “Area Percent at 248 nm T2 week” value ([4]; Ambient) was 99.7 Area Percent. The “Area Percent at 248 nm T4 week” value ([4]; Ambient) was 99.7 Area Percent, the “Area Percent at 248 nm T8 week” value ([4]; Ambient) was 99.7 Area Percent and the “Area Percent at 248 nm T0” value ([4]; Ambient) was 99.8 Area Percent. For the same molecule, the “change in HPLC area percent purity (LCAP)” value ([4]; selected storage conditions, time points over eight-week study) was “no significant decrease”.
